What all share (assay): Minimum growth inhibitory concentration, method of the Japan Society of Chemotherapy
Common to all, as to format: cell-based

Test [1] concerns Streptococcus faecalis SR58180FLX-R. The following applies: Enterococcus faecalis, SR58180FLXR, read-out: Minimum Inhibitory Concentration. The source says:
(§1) The results are shown in Table 1. • (A) : Staphylococcus aureus SR3131 • (B) : Staphylococcus aureus SR3637 • (C) : Staphylococcus aureus SR57690FLX-R* • (D) : Streptococcus pneumoniae • (E) : Streptococcus faecalis SR58180FLX-R* • (F) : Escherichia coli EC-7437 • (G) : Escherichia coli SR5038 OFLX-R* * : ofloxacin resistant bacteria

Test [2] deals with Staphylococcus aureus SR57690FLX-R. The following applies: SR57690FLXR, read-out: Minimum Inhibitory Concentration.
Excerpt: as §1

Test [3] concerns Staphylococcus aureus SR3637. The following applies: bacteria B: Staphylococcus aureus SR3637; bacteria ×10⁶/ml.
Excerpt: as §1

The next test relates to Escherichia coli EC-7437. The following applies: EC7437; bacteria F: Escherichia coli EC-7437; bacteria ×10⁶/ml.
Excerpt: as §1

A further test relates to Streptococcus pneumoniae. The following applies: bacteria D: Streptococcus pneumoniae; bacteria ×10⁶/ml.
Excerpt: as §1

The test system of test [4] is Escherichia coli SR5038 OFLX-R. The following applies: SR5038OFLXR, read-out: Minimum Inhibitory Concentration.
Excerpt: as §1

The test system of test [5] is Staphylococcus aureus SR3131. The following applies: bacteria A: Staphylococcus aureus SR3131; bacteria ×10⁶/ml.
Excerpt: as §1

In brackets after ≈: the same amount, converted by molar mass. Read-outs that look alike come from different tables or passages of the source. Some results are limits rather than exact numbers.

Turning to `CC1COc2c(N3CCN(C)CC3)c(F)cc3c(=O)c(C(=O)O)cn1c23` (stereo not drawn) [Ofloxacin], the MIC was 100 µg/mL (≈ 277 µM) in test [1]; 50 µg/mL (≈ 138 µM) in test [2]; 0.4 µg/mL (≈ 1.11 µM) in test [3]; less than 0.02 µg/mL in the test on Escherichia coli EC-7437; 1.6 µg/mL (≈ 4.43 µM) against Streptococcus pneumoniae; 50 µg/mL (≈ 138 µM) in test [4] (bacteria G: Escherichia coli SR5038 OFLX-R, ofloxacin resistant, bacteria ×10⁶/ml). Further, the MIC in test [5] is 0.4 µg/mL (≈ 1.11 µM).

With `C=C1CN(c2c(F)cc3c(=O)c(C(=O)O)cn(C4CC4)c3c2F)C[C@H]1NC` [Compound 1, 7-((-)-(S)-3-Methylamino-4-methylenepyrrolidine)-1-cyclopropyl-6,8-difluoro-1,4-dihydro-4-oxo-3-quinolinecarboxylic acid], the MIC was 6.3 µg/mL (≈ 16.8 µM) in test [1]; 6.3 µg/mL (≈ 16.8 µM) in test [2]; 0.05 µg/mL (≈ 0.133 µM) in test [3]; less than 0.003 µg/mL against Escherichia coli EC-7437; 0.2 µg/mL (≈ 0.533 µM) in the test on Streptococcus pneumoniae; 12.5 µg/mL (≈ 33.3 µM) in test [4] (Escherichia coli). For the same compound, the MIC in test [5] worked out at 0.05 µg/mL (≈ 0.133 µM).

As to `C=C1CN(c2c(F)cc3c(=O)c(C(=O)O)cn(C4CC4)c3c2F)CC1NC` (racemic) [Racemate of the compound 1], the MIC in test [1] worked out at 12.5 µg/mL (≈ 33.3 µM); in test [2], 6.3 µg/mL (≈ 16.8 µM); in test [3], 0.1 µg/mL (≈ 0.266 µM); in the test with Escherichia coli EC-7437, 0.006 µg/mL (≈ 0.016 µM); in the test with Streptococcus pneumoniae, 0.4 µg/mL (≈ 1.07 µM); in test [4] (Escherichia coli) it was 12.5 µg/mL (≈ 33.3 µM). For the same compound, in test [5], the MIC was determined as 0.1 µg/mL (≈ 0.266 µM).

The values are drawn from patent EP0487030A2, “Process of optical resolution for the preparation of an optically active cyclic amine” (SHIONOGI SEIYAKU KABUSHIKI KAISHA trading under the name of …, priority 1990, dated 1992).
